Key:
[1] = tested on: SK channels; experiment: SK current recording in TRN neurons; type: cell-based, mice; conditions: in the presence of LY379268
Procedure: For conducting slice electrophysiology analysis, whole-cell patch-clamp recordings were performed using horizontal slices for the rebound bursting assays and angled-coronal thalamocortical slices for the synaptic optogenetics experiments (Agmon et al., 1991). 21-35 day old male C57BL6 mice and Ptchd1 Y/− (knockout) mice were used. Animals were transcardially perfused under isoflurane anesthesia with an ice-cold cutting solution (194 mM Sucrose, 30 mM NaCl, 4.5 mM KCl, 1.2 mM NaH2PO4, 10 mM Glucose, 2 mM MgCl2, 0.2 mM CaCl2, and 26 mM NaHCO3). Mice were then decapitated and the brains were carefully dissected out. Both cerebellum and olfactory bulb were removed from the brain and were placed and glued onto the stage of a Leica Vibratome with the ventral surface down and the pial surface towards the blade. […]
The channel conductance of SK channels and low-threshold T-type Ca2+ channels at different holding membrane potentials ranging from −80 mV to −50 mV in the presence or absence of SK channel blockers was evaluated in order to further determine how the activation of mGluR2/3 in TRN neurons enhanced the rebound bursting.

[2] = tested on: Ptchd1 KO mice; experiment: Open field test of locomotor activity, Ptchd1 KO mice; type: in vivo; conditions: 90 minutes
Procedure: For performing the open field test, mice were allowed to habituate to the behavioral testing room for 1 hour before the experiment. The locomotor activity in mice was evaluated over a 90 minute period in an automated Omnitech Digiscan apparatus (AccuScan Instruments). Locomotor activity was assessed as total distance traveled (m). For drug treatment experiments, mice received an intraperitoneal injection 15 minutes before the assay and then where placed kindly in the left corner, head facing into the corner.
The effects of mGluR2/3 activation on the locomotor activity of WT mice and Ptchd1 mutant mice were evaluated. In brief, all mice were treated with mGluR2/3 agonist, LY379268, at three different dosages (1 mg/kg, 5 mg/kg and 10 mg/kg) for open-field testing.
Here, whether mGluR3 activation would rescue the hyperactivity phenotype of Ptchd1 KO mice was evaluated. Locomotor activity estimated as total distance travelled (in) was assessed over a 90 min period in an automated Omnitech Digiscan apparatus. For drug treatment experiments, mice were placed in the open-field arena for 30 minutes prior to Mavalon 63 (5 mg/kg and 10 mg/kg in saline; i.p.), or vehicle injections before being returned to the arena.

N[C@@]1(C(=O)O)COC2C(C(=O)O)C21 (stereo in doubt) [LY379268, (1R,4R,5S,6R)-4-Amino-2-oxabicyclo[3.1.0] hexane-4,6-dicarboxylic acid]
current mediated by SK (max outward currents, SK channel conductance) [1]: significantly increased | total distance traveled ([2]; LY379268 5 mg/kg i.p.): traveled significantly less distances to a comparable level of wild type mice | total distance traveled ([2]; LY379268 10 mg/kg i.p.): traveled significantly less distances to a comparable level of wild type mice
